{"source": "patent US6057119A", "about": "“Crystal structure and mutants of interleukin-1β converting enzyme” (Vertex Pharmaceuticals, Incorporated, priority 1995, dated 2000)", "target": "T1, human interleukin-1β converting enzyme (ICE), wild type, autoprocessed p20/p10 from p30 precursor (residues Asn 120 to His 404 of p45), SEQ ID No: 1 (Homo sapiens, UniProt P29466)", "T1 construct": "the concomitant appearance of the p20 and p10 subunits, was monitored by SDS-PAGE, evidence that autocatalytic processing of the enzyme had occurred; made in house", "T1 sequence (P29466 120-297)": "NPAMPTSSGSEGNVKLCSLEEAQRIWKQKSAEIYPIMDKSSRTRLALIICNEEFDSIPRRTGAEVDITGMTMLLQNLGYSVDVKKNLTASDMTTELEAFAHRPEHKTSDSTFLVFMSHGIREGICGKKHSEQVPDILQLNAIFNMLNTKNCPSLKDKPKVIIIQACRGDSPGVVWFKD", "T1 sequence (P29466 317-404)": "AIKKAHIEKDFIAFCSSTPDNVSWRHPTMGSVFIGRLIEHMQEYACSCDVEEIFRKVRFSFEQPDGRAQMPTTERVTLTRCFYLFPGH", "assay": "Inhibition of autoprocessed ICE by tetrapeptide aldehyde inhibitor (activity assayed by hydrolysis of Succinyl-Tyr-Val-Ala-Asp-p-nitroanilide)", "assay_type": "biochemical", "conditions": "2× molar excess of inhibitor over enzyme", "procedure": "The protein was concentrated to 3-5 mg/ml by ultrafiltration at 4° C., followed by incubation at room temperature. The disappearance of the p30 precursor, and the concomitant appearance of the p20 and p10 subunits, was monitored by SDS-PAGE, evidence that autocatalytic processing of the enzyme had occurred. ICE enzymatic activity was assayed by hydrolysis of a Succinyl-Tyr-Val-Ala-Asp-p-nitroanilide substrate at 37° C. and correlated closely with conversion to subunits.\nThe protein-inhibitor complex sample was concentrated and fractionated by size-exclusion chromatography, in final preparation for crystallization experiments.", "data": [{"smiles": "CC(=O)N[C@@H](Cc1ccc(O)cc1)C(=O)N[C@H](C(=O)N[C@@H](C)C(=O)N[C@H](C=O)CC(=O)O)C(C)C", "note": "[acetyl-Tyr-Vol-Ala-Asp-H]", "values": [{"measurement": "inhibition of autoprocessed ICE", "result": "inhibited fully"}]}]}
